The record followed here is patent US10004701B2, “Methods and compositions for treating infection” (UNIVERSITY OF ROCHESTER, priority 2012, dated 2018).

Assay in all cases: AK assay 384-well format, Prestwick library screening
The test system of assay [1] is E. faecium. The assay is classed as cell-based, Enterococcus faecium. To be noted: 50 μM final drug concentration; for fold induction at 50 µM: Enterococcus faecium, 3 h.
Assay [2] has as its system S. aureus strain USA300-0114. The assay is classed as cell-based, Staphylococcus aureus. As to conditions: 50 μM final drug concentration; for fold induction at 50 µM: Staphylococcus aureus, USA300, 3 h.
Assay [3] has as its system K. pneumoniae. The format is cell-based, Klebsiella pneumoniae. To be noted: 50 μM final drug concentration; for fold induction at 50 µM: Klebsiella pneumoniae, 3 h.
For assay [4], the system named is A. baumannii strain 98-37-09. The assay is classed as cell-based, Acinetobacter baumannii. To be noted: 50 μM final drug concentration; for fold induction at 50 µM: Acinetobacter baumannii, 983709, 3 h.
The test system of assay [5] is P. aeruginosa. The format is cell-based, Pseudomonas aeruginosa. To be noted: 50 μM final drug concentration; for fold induction at 50 µM: Pseudomonas aeruginosa, 3 h.
Assay [6] concerns E. cloacae. The assay is classed as cell-based, Enterobacter cloacae. As to conditions: 50 μM final drug concentration; for fold induction at 50 µM: Enterobacter cloacae, 3 h.
Assay [7] deals with E. coli. The assay is classed as cell-based, Escherichia coli. As to conditions: 50 μM final drug concentration; for fold induction at 50 µM: Escherichia coli, 3 h.
Setting [8] is: planktonic, cutoff for positive 3-fold increase.
Where [9] appears, read: planktonic E. faecium, cutoff for positive-scoring molecules 3-fold increase, read-out: AK-based Prestwick Library Screening Results, E. faecium (increase in extracellular AK activity).
The mark [10] stands for this setting: planktonic S. aureus, cutoff for positive-scoring molecules 3-fold increase, read-out: AK-based Prestwick Library Screening Results, S. aureus (increase in extracellular AK activity).
The mark [11] stands for this setting: planktonic K. pneumoniae, cutoff for positive-scoring molecules 3-fold increase, read-out: AK-based Prestwick Library Screening Results, K. pneumoniae (increase in extracellular AK activity).
Setting [12] is: planktonic A. baumannii, cutoff for positive-scoring molecules 3-fold increase, read-out: AK-based Prestwick Library Screening Results, A. baumannii (increase in extracellular AK activity).
Setting [13] is: planktonic P. aeruginosa, cutoff for positive-scoring molecules 3-fold increase, read-out: AK-based Prestwick Library Screening Results, P. aeruginosa (increase in extracellular AK activity).
[14] abbreviates: planktonic E. cloacae, cutoff for positive-scoring molecules 3-fold increase, read-out: AK-based Prestwick Library Screening Results, E. cloacae (increase in extracellular AK activity).
Setting [15] is: planktonic, cutoff for positive 3-fold increase, read-out: AK-based Prestwick Library Screening Results, E. faecium (fold increase in extracellular AK activity).
Setting [16] is: planktonic, cutoff for positive 3-fold increase, read-out: AK-based Prestwick Library Screening Results, S. aureus (fold increase in extracellular AK activity).
The mark [17] stands for this setting: planktonic, cutoff for positive 3-fold increase, read-out: AK-based Prestwick Library Screening Results, K. pneumoniae (fold increase in extracellular AK activity).
The mark [18] stands for this setting: planktonic, cutoff for positive 3-fold increase, read-out: AK-based Prestwick Library Screening Results, A. baumannii (fold increase in extracellular AK activity).
Where [19] appears, read: planktonic, cutoff for positive 3-fold increase, read-out: AK-based Prestwick Library Screening Results, P. aeruginosa (fold increase in extracellular AK activity).
The mark [20] stands for this setting: planktonic, cutoff for positive 3-fold increase, read-out: AK-based Prestwick Library Screening Results, E. cloacae (fold increase in extracellular AK activity).
Setting [21] is: planktonic, cutoff for positive 3-fold increase, read-out: AK-based Prestwick Library Screening Results, E. coli (fold increase in extracellular AK activity).
[22] abbreviates: planktonic E. faecium, positive cutoff 3-fold increase, read-out: AK-based Prestwick library screening result, E. faecium (fold increase in extracellular AK activity).
Setting [23] is: planktonic S. aureus, positive cutoff 3-fold increase, read-out: AK-based Prestwick library screening result, S. aureus (fold increase in extracellular AK activity).
The mark [24] stands for this setting: planktonic K. pneumoniae, positive cutoff 3-fold increase, read-out: AK-based Prestwick library screening result, K. pneumoniae (fold increase in extracellular AK activity).
Where [25] appears, read: planktonic A. baumannii, positive cutoff 3-fold increase, read-out: AK-based Prestwick library screening result, A. baumannii (fold increase in extracellular AK activity).
Setting [26] is: planktonic P. aeruginosa, positive cutoff 3-fold increase, read-out: AK-based Prestwick library screening result, P. aeruginosa (fold increase in extracellular AK activity).
Where [27] appears, read: planktonic E. cloacae, positive cutoff 3-fold increase, read-out: AK-based Prestwick library screening result, E. cloacae (fold increase in extracellular AK activity).
The mark [28] stands for this setting: planktonic E. coli, positive cutoff 3-fold increase, read-out: AK-based Prestwick library screening result, E. coli (fold increase in extracellular AK activity).

Counter-ions that a name gives are not always drawn. Like-named read-outs stand apart in the source and are kept apart here.

On to `CNCCc1ccccn1.CS(=O)(=O)O.CS(=O)(=O)O` [Betahistine mesylate], for which the “AK-based Prestwick Library Screening Results, E. faecium (fold increase in extracellular AK activity)” value in assay [1] (setting [8]) is listed as 0.9. Further, the “AK-based Prestwick Library Screening Results, S. aureus (fold increase in extracellular AK activity)” value in assay [2] (setting [8]) worked out at 0.9. In addition, the “AK-based Prestwick Library Screening Results, K. pneumoniae (fold increase in extracellular AK activity)” value in assay [3] (setting [8]) amounted to 1.1. In assay [4] (setting [8]), the “AK-based Prestwick Library Screening Results, A. baumannii (fold increase in extracellular AK activity)” value came out at 1.2. In addition, the “AK-based Prestwick Library Screening Results, P. aeruginosa (fold increase in extracellular AK activity)” value in assay [5] (setting [8]) was 1.1. Besides, the “AK-based Prestwick Library Screening Results, E. cloacae (fold increase in extracellular AK activity)” value in assay [6] (setting [8]) was determined as 1.3. In assay [7] (setting [8]), the “AK-based Prestwick Library Screening Results, E. coli (fold increase in extracellular AK activity)” value came out at 1.4.

On to `C[C@H]1C[C@H]2[C@@H]3CCC4=CC(=O)C=C[C@]4(C)[C@@]3(F)[C@@H](O)C[C@]2(C)[C@@]1(O)C(=O)CO` [Betamethasone], for which the fold induction at 50 µM in assay [1] (setting [9]) was 1.1; in assay [2] (setting [10]) it was 1.1; in assay [3] (setting [11]) it was 0.9; in assay [4] (setting [12]), 0.9; in assay [5] (setting [13]) it was 1.1; in assay [6] (setting [14]), 1.3. In assay [7] (planktonic E. coli, […], read-out: AK-based Prestwick Library Screening Results, E. coli (increase in extracellular AK activity)), the fold induction at 50 µM was 1.1.

As for `CC(C)NCC(O)COc1ccc(CCOCC2CC2)cc1` (stereo not drawn) [Betaxolol hydrochloride], the fold induction at 50 µM in assay [1] (setting [15]) amounted to 0.9; in assay [2] (setting [16]) it was 0.9; in assay [3] (setting [17]), 1; in assay [4] (setting [18]) it was 1.4; in assay [5] (setting [19]) it was 1.1; in assay [6] (setting [20]), 1.6. The fold induction at 50 µM in assay [7] (setting [21]) was determined as 1.2.

With `NCCc1cc[nH]n1` [Betazole hydrochloride], the fold induction at 50 µM in assay [1] (384-well format, cutoff for positive-scoring molecules 3-fold increase, read-out: AK-based Prestwick Library Screening Results, E. faecium (increase in extracellular AK activity)) came out at 1; in assay [2] (384-well format, cutoff for positive-scoring molecules 3-fold increase, read-out: AK-based Prestwick Library Screening Results, S. aureus (increase in extracellular AK activity)) it was 1.2; in assay [3] (384-well format, cutoff for positive-scoring molecules 3-fold increase, read-out: AK-based Prestwick Library Screening Results, K. pneumoniae (increase in extracellular AK activity)), 0.9; in assay [4] (384-well format, cutoff for positive-scoring molecules 3-fold increase, read-out: AK-based Prestwick Library Screening Results, A. baumannii (increase in extracellular AK activity)), 1.2; in assay [5] (384-well format, cutoff for positive-scoring molecules 3-fold increase, read-out: AK-based Prestwick Library Screening Results, P. aeruginosa (increase in extracellular AK activity)), 1; in assay [6] (384-well format, cutoff for positive-scoring molecules 3-fold increase, read-out: AK-based Prestwick Library Screening Results, E. cloacae (increase in extracellular AK activity)), 1.4. The fold induction at 50 µM in assay [7] (384-well format, cutoff for positive-scoring molecules 3-fold increase, read-out: AK-based Prestwick Library Screening Results, E. coli (increase in extracellular AK activity)) worked out at 1.3.

In the case of `CC(C[N+](C)(C)C)OC(N)=O` (stereo not drawn) [Bethanechol chloride], the fold induction at 50 µM in assay [1] (setting [22]) is 0.9; in assay [2] (setting [23]), 0.7; in assay [3] (setting [24]) it was 0.7; in assay [4] (setting [25]), 0.8; in assay [5] (setting [26]), 0.7; in assay [6] (setting [27]), 0.9. Further, the fold induction at 50 µM in assay [7] (setting [28]) stood at 1.

Turning to `C[N+]1(C)C[C@H](O)C[C@H]1C(=O)[O-]` [Betonicine], the fold induction at 50 µM is 0.9 in assay [1] (planktonic, cutoff for positive-scoring molecules 3-fold increase, read-out: AK-based Prestwick Library Screening Results, E. faecium (fold increase in extracellular AK activity)); 0.4 in assay [2] (planktonic, cutoff for positive-scoring molecules 3-fold increase, read-out: AK-based Prestwick Library Screening Results, S. aureus (fold increase in extracellular AK activity)); 0.6 in assay [3] (planktonic, cutoff for positive-scoring molecules 3-fold increase, read-out: AK-based Prestwick Library Screening Results, K. pneumoniae (fold increase in extracellular AK activity)); 0.4 in assay [4] (planktonic, cutoff for positive-scoring molecules 3-fold increase, read-out: AK-based Prestwick Library Screening Results, A. baumannii (fold increase in extracellular AK activity)); 0.4 in assay [5] (planktonic, cutoff for positive-scoring molecules 3-fold increase, read-out: AK-based Prestwick Library Screening Results, P. aeruginosa (fold increase in extracellular AK activity)); 0.4 in assay [6] (planktonic, cutoff for positive-scoring molecules 3-fold increase, read-out: AK-based Prestwick Library Screening Results, E. cloacae (fold increase in extracellular AK activity)). Further, in assay [7] (planktonic, cutoff for positive-scoring molecules 3-fold increase, read-out: AK-based Prestwick Library Screening Results, E. coli (fold increase in extracellular AK activity)), the fold induction at 50 µM stood at 0.4.

Consider `C=C(C)[C@@H]1CC[C@]2(CO)CC[C@]3(C)[C@H](CC[C@@H]4[C@@]5(C)CC[C@H](O)C(C)(C)[C@@H]5CC[C@]43C)[C@@H]12` [Betulin], for which the fold induction at 50 µM in assay [1] (setting [22]) was 0.9; in assay [2] (setting [23]), 0.3; in assay [3] (setting [24]), 0.7; in assay [4] (setting [25]), 0.8; in assay [5] (setting [26]), 0.7; in assay [6] (setting [27]) it was 1.3. Also, the fold induction at 50 µM in assay [7] (setting [28]) came out at 0.8.

Turning to `C=C(C)[C@@H]1CC[C@]2(C(=O)O)CC[C@]3(C)[C@H](CC[C@@H]4[C@@]5(C)CC[C@H](O)C(C)(C)[C@@H]5CC[C@]43C)[C@@H]12` [Betulinic acid], the fold induction at 50 µM in assay [1] (setting [9]) was found to be 0.9; in assay [2] (setting [10]), 0.1; in assay [3] (setting [11]), 0.5; in assay [4] (setting [12]), 0.6; in assay [5] (setting [13]) it was 0.6; in assay [6] (setting [14]), 0.7. For the same compound, the fold induction at 50 µM in assay [7] (planktonic E. coli, cutoff for positive-scoring molecules 3-fold increase, read-out: AK-based Prestwick Library Screening Results, E. coli (increase in extracellular AK activity)) was 0.6.

For `CC(C)(Oc1ccc(CCNC(=O)c2ccc(Cl)cc2)cc1)C(=O)O` [Bezafibrate], the fold induction at 50 µM worked out at 0.8 in assay [1] (setting [15]); 1.1 in assay [2] (setting [16]); 0.7 in assay [3] (setting [17]); 0.8 in assay [4] (setting [18]); 1 in assay [5] (setting [19]); 1.5 in assay [6] (setting [20]). Further, in assay [7] (setting [21]), the fold induction at 50 µM stood at 0.9.
